From patent US20230390315A1, “COMPOSITIONS AND METHODS FOR TREATING ISCHEMIC CONDITIONS” (The Regents of the University of California, priority 2020, published 2023) come the findings set out here.

Molecules are shown by their SMILES.

This test has as its system protein glycosylation in BCECs. The experiment in a line: N-glycan, monosaccharide, sialic acid and O-glycan analysis of BCECs. It counts as cell-based, bovine. The procedure:
As soon as BCECs reached about 80% confluency, they were washed twice with phosphate buffered saline (PBS, Sigma) and harvested by scraping. The cells were pelleted by centrifugation at 300 g for 3 mins and washed once with cold PBS. Cells were homogenized and total protein was measured. All subsequent analysis was based on known protein amount.
N-linked glycans were removed from glycoprotein samples using PNGase-F kit (New England BioLabs, P0705S). Briefly, 300 μg of protein sample was reconstituted in 180 μl UltraPure water. 20 μl of 10× denaturing buffer was added and boiled using 100° C. water bath for 14 mins. Samples were cooled down to room temperature and centrifuged at 2700 g for 1 min. Subsequently, 50 μl 10×NP-40 was added and samples were kept at room temperature for 30 mins with vortexing at 5 min interval, followed by adding 25 μL of 10×reaction buffer and mixing thoroughly. 5 μl PNGaseF (2500 U) was then added to the samples and mixed gently. Samples were incubated at 37° C. for 16 hrs. Released N-glycans were purified using solid phase extraction method. Briefly, N-glycans were purified by passing the reaction mixture sequentially over pre-conditioned Sep-Pak C18 1 cc cartridge (Waters) and HyperSep PGC ([…]) cartridge (25 mg, 1 ml Thermo Scientific). The cartridge was washed with 4 ml of water and the PGC alone was washed with additional 1 ml of water. N-glycans bound to PGC were eluted using 30% acetonitrile containing 0.1% TFA in water. Finally, purified N-glycans were lyophilized and labeled with 2-AB. Briefly, samples were dissolved in 10 μl solution of 0.44 M 2-AB (2-Amino benzamide) in 35% acetic acid in DMSO containing 1M sodium cyanoborohydride. The samples were incubated at 65° C. for 2.5 hrs. The 2-AB labeled glycans were purified using GlycoClean S cartridge (GLYKO) following their glycan clean-up protocol. Excess reagent was removed from the samples using Glycoclean S-cartridge (Prozyme) and labelled glycans were dried using SpeedVac and stored at −20° C. Profiling of 2-AB labeled glycans was obtained using Dionex CarboPac PA1 (4×250 mm) anion exchange column along with a guard column (4×50 mm) at flow rate of 1 ml/min. Glycans were separated in 100 mM sodium hydroxide with a sodium acetate gradient of 0-250 mM in 0-75 minutes. The data was collected using the Dionex ICS-3000 HPLC system with Ultimate 3000 fluorescence detector (Dionex) set at λex 330 nm at tem 420 nm with sensitivity 7. The data was processed using Chromeleon software (Thermo Scientific).
Monosaccharide composition analysis was done using HPAEC-PAD (Thermo-Dionex ICS3000) and nmole amount of each monosaccharide present in 25 μg of protein was calculated. Samples were hydrolyzed using 2 N trifluoroacetic acid (TFA) at 100° C. for 4 hrs. Followed by removal of acid using dry nitrogen flush. To ensure complete removal of acid, samples were co-evaporated twice with 100 μl of 50% isopropyl alcohol (IPA). Finally, the samples were dissolved in Milli-Q water and injected on HPAEC-PAD. Monosaccharide profile was done using Dionex CarboPac™ PA1 column (250 mm×4 mm; with 50 mm×4 mm guard column). […] All neutral and amino sugars were identified and quantified by comparing with authentic monosaccharide standard mixture consisting of L-fucose, D-galactosamine, D-glucosamine, D-galactose, D-glucose and D-mannose.
Mild acid hydrolysis was used to release sialic acid. […] Known amount of standard Neu5Ac was used to quantify amount of sialic acid in samples. […]

As for `N[C@H](C=O)[C@@H](O)[C@H](O)[C@H](O)CO` [ManN, 2-Amino-2-deoxy-D-mannose], the “fucose (8 hours), mannose (12 hours), galactose (24 hours) and Neu5Ac (8 and 24 hours) content vs untreated control” value was “significant decrease”; the “incorporation of ManN in N-glycans” value is “No incorporation of ManN was detected”. Besides, for the setting “40 uM ManN”, the “Man-5 and Man-7 content” value was “significant early phase accumulation”; the “Man-6, Man-8 and Man-9 in total oligomannose N-glycan content vs untreated control” value is “significant time-dependent reduction”. In addition, the O-glycosylation entry (40 uM ManN, MALDI-Tof) is on record as “overall decrease in O-glycosylation”.
